How the values were obtained:
Phospholipidosis [1] = settings: rat
Phospholipidosis [2] = experiment: Phospholipidosis-positive literature compound observed in dog; assay type: ADME, Canis lupus familiaris
Phospholipidosis [3] = experiment: Phospholipidosis-positive literature compound observed in mouse; assay type: ADME, organism-based; settings: in vivo
Phospholipidosis [4] = experiment: Phospholipidosis-positive literature compound observed in hamster; settings: cricetinae
Phospholipidosis [5] = experiment: Phospholipidosis-positive literature compound observed in human; assay type: ADME
Phospholipidosis [6] = experiment: Phospholipidosis-positive literature compound observed in Rhesus monkey; assay type: ADME, Macaca mulatta
Phospholipidosis [7] = experiment: Phospholipidosis-positive literature compound observed in guinea pig; assay type: ADME, Cavia porcellus
Phospholipidosis [8] = experiment: Phospholipidosis-positive literature compound observed in rabbit; assay type: ADME, Oryctolagus cuniculus
Phospholipidosis [9] = experiment: Phospholipidosis-positive literature compound observed in monkey; assay type: ADME; settings: cercopithecidae
Phospholipidosis [10] = system: Phospholipidosis

CN(C)CCCN1c2ccccc2Sc2ccc(Cl)cc21 [CHLORPROMAZINE] was tested, and the Phospholipidosis (Phospholipidosis [1]) was “Active” and the Phospholipidosis (Phospholipidosis [2]) was “Active”.

With CCN(CC)CCOc1ccc(C(O)(Cc2ccc(Cl)cc2)c2ccc(C)cc2)cc1 (configuration not stated) [TRIPARANOL] the Phospholipidosis (Phospholipidosis [3]) was “Active”, the Phospholipidosis (Phospholipidosis [1]) was “Active” and the Phospholipidosis (Phospholipidosis [4]) was “Active”.

For NCCc1cc(O)c(O)cc1O [OXIDOPAMINE], the Phospholipidosis (Phospholipidosis [1]) was “Active”.

CN(C)CCC=C1c2ccccc2C=Cc2c(Cl)cccc21 was tested, and the Phospholipidosis (Phospholipidosis [1]) was “Active”.

For CCOc1ccc(NC(C)=O)cc1 [PHENACETIN], the Phospholipidosis (Phospholipidosis [1]) was “Active”.

Cc1cccc(CN2CCN(C(c3ccccc3)c3ccc(Cl)cc3)CC2)c1 (configuration not stated) [MECLIZINE] was tested, and the Phospholipidosis (Phospholipidosis [1]) was “Active”.

In the case of CN(C)CCCN1c2ccccc2CCc2ccc(Cl)cc21 [CLOMIPRAMINE], the Phospholipidosis (Phospholipidosis [1]) is reported as “Active”.

For CCN[C@@H]1C[C@H](N)[C@@H](O[C@H]2OC(CN)=CC[C@H]2N)[C@H](O)[C@H]1O[C@H]1OC[C@](C)(O)[C@H](NC)[C@H]1O [NETILMICIN], the Phospholipidosis (Phospholipidosis [1]) was “Active”.

For NC[C@H]1O[C@H](O[C@H]2[C@H](O)[C@@H](O[C@H]3O[C@H](CO)[C@@H](O)[C@H](N)[C@H]3O)[C@H](N)C[C@@H]2N)[C@H](N)C[C@@H]1O [TOBRAMYCIN], the Phospholipidosis (Phospholipidosis [1]) was “Active” and the Phospholipidosis (Phospholipidosis [5]) was “Active”.

In the case of CN(C)CCCN(C)[C@H]1CC[C@H]2[C@@H]3CC=C4C[C@@H](O)CC[C@]4(C)[C@H]3CC[C@]12C [AZACOSTEROL], the Phospholipidosis (Phospholipidosis [3]) is reported as “Active”.

CCN(CC)CCCC(C)Nc1ccnc2cc(Cl)ccc12 (configuration not stated) [CHLOROQUINE] was tested, and the Phospholipidosis (Phospholipidosis [6]) was “Active”, the Phospholipidosis (Phospholipidosis [3]) was “Active” and the Phospholipidosis (Phospholipidosis [1]) was “Active”. For the same compound, the Phospholipidosis (Phospholipidosis [2]) was “Active” and the Phospholipidosis (Phospholipidosis [5]) was “Active”.

CN1CCN(C(c2ccccc2)c2ccc(Cl)cc2)CC1 (configuration not stated) [CHLORCYCLIZINE] was tested, and the Phospholipidosis (Phospholipidosis [1]) was “Active”.

For CCOC(=O)C1N=C(c2ccccc2F)c2cc(Cl)ccc2NC1=O (configuration not stated) [ETHYL LOFLAZEPATE], the Phospholipidosis (Phospholipidosis [1]) was “Active”.

With CCNC(C)Cc1cccc(C(F)(F)F)c1 (configuration not stated) [FENFLURAMINE] the Phospholipidosis (Phospholipidosis [1]) was “Active”, the Phospholipidosis (Phospholipidosis [2]) was “Active” and the Phospholipidosis (Phospholipidosis [7]) was “Active”.

GENTAMICIN was tested, and the Phospholipidosis (Phospholipidosis [1]) was “Active”, the Phospholipidosis (Phospholipidosis [2]) was “Active” and the Phospholipidosis (Phospholipidosis [5]) was “Active”.

In the case of NC[C@H]1Cc2ccc(F)cc2[C@@H](c2ccccc2)O1, the Phospholipidosis (Phospholipidosis [1]) is reported as “Active”.

In the case of CN(C)CCCN1c2ccccc2CCc2ccccc21 [IMIPRAMINE], the Phospholipidosis (Phospholipidosis [1]) is reported as “Active”.

With CC(=O)N1CCN(c2ccc(OCC3COC(Cn4ccnc4)(c4ccc(Cl)cc4Cl)O3)cc2)CC1 (configuration not stated) [KETOCONAZOLE] the Phospholipidosis (Phospholipidosis [3]) was “Active”.

With CCN(CC)Cc1cc(Nc2ccnc3cc(Cl)ccc23)ccc1O.Cl the Phospholipidosis (Phospholipidosis [5]) was “Active”.

For CNCCCC12CCC(c3ccccc31)c1ccccc12 [MAPROTILINE], the Phospholipidosis (Phospholipidosis [1]) was “Active”.

For NC[C@@H]1CC[C@@H](N)[C@@H](O[C@H]2[C@H](O)[C@@H](O[C@H]3O[C@H](CO)[C@@H](O)[C@H](N)[C@H]3O)[C@H](N)C[C@@H]2N)O1 [DIBEKACIN], the Phospholipidosis (Phospholipidosis [1]) was “Active”.

In the case of CN(C)C/C=C(/c1ccc(Br)cc1)c1cccnc1 [ZIMELDINE], the Phospholipidosis (Phospholipidosis [1]) is reported as “Active” and the Phospholipidosis (Phospholipidosis [2]) is reported as “Active”.

For OC(CN1CCCCC1)c1ccc(C=C2c3ccccc3-c3ccccc32)cc1 (configuration not stated), the Phospholipidosis (Phospholipidosis [1]) was “Active”.

CN(C)CCCn1c2c(c3ccccc31)CCCCCC2 [IPRINDOLE] was tested, and the Phospholipidosis (Phospholipidosis [1]) was “Active”.

For CCC[C@@H]1C[C@@H](C(=O)N[C@@H]([C@H]2O[C@H](SC)[C@H](O)[C@@H](O)[C@H]2O)[C@H](C)Cl)N(C)C1 [CLINDAMYCIN], the Phospholipidosis (Phospholipidosis [1]) was “Active” and the Phospholipidosis (Phospholipidosis [2]) was “Active”.

In the case of CCCC[C@@H]1CC(=O)[C@]2(O)O[C@@H]3[C@@H](NC)[C@@H](O)[C@@H](NC)[C@H](O)[C@H]3O[C@@H]2O1.O=S(=O)(O)O, the Phospholipidosis (Phospholipidosis [1]) is reported as “Active”.

With CN(C)CCCC1(c2ccc(F)cc2)OCc2cc(C#N)ccc21 (configuration not stated) [CITALOPRAM] the Phospholipidosis (Phospholipidosis [1]) was “Active”.

For C[n+]1ccc(-c2cc[n+](C)cc2)cc1, the Phospholipidosis (Phospholipidosis [3]) was “Active”.

In the case of O=C(NC1CCN(CCc2c[nH]c3ccccc23)CC1)c1ccccc1 [INDORAMIN], the Phospholipidosis (Phospholipidosis [1]) is reported as “Active”.

In the case of CCCCc1oc2ccccc2c1C(=O)c1cc(I)c(OCCN(CC)CC)c(I)c1 [AMIODARONE], the Phospholipidosis (Phospholipidosis [1]) is reported as “Active” and the Phospholipidosis (Phospholipidosis [5]) is reported as “Active”.

For CCN(CC)CCn1nc2c3c(c(C)ccc31)Sc1cc(Cl)ccc1-2, the Phospholipidosis (Phospholipidosis [1]) was “Active”.

OCCOCCN1CCN(C(c2ccccc2)c2ccc(Cl)cc2)CC1 (configuration not stated) [HYDROXYZINE] was tested, and the Phospholipidosis (Phospholipidosis [1]) was “Active”.

CN(C)CCC=C1c2ccccc2CCc2ccccc21 [AMITRIPTYLINE] was tested, and the Phospholipidosis (Phospholipidosis [1]) was “Active”.

With CN(C)CCC=C1c2ccccc2CCc2c(Cl)cccc21 the Phospholipidosis (Phospholipidosis [1]) was “Active”.

CCN(CC)CCOc1ccc2c(c1)C(=O)c1cc(OCCN(CC)CC)ccc1-2 [TILORONE] was tested, and the Phospholipidosis (Phospholipidosis [1]) was “Active” and the Phospholipidosis (Phospholipidosis [5]) was “Active”.

With FC(F)(F)c1ccc(-c2ccc(OCCN3CCCC3)cc2)cc1 [BOXIDINE] the Phospholipidosis (Phospholipidosis [1]) was “Active”.

In the case of CC[C@H]1CN2CCc3cc(OC)c(OC)cc3[C@@H]2C[C@@H]1C[C@H]1NCCc2cc(OC)c(OC)cc21 [EMETINE], the Phospholipidosis (Phospholipidosis [1]) is reported as “Active”.

In the case of CCC(c1ccc(OCCN(CC)CC)cc1)C(CC)c1ccc(OCCN(CC)CC)cc1 (configuration not stated) [CORALGIL], the Phospholipidosis (Phospholipidosis [3]) is reported as “Active”, the Phospholipidosis (Phospholipidosis [1]) is reported as “Active” and the Phospholipidosis (Phospholipidosis [2]) is reported as “Active”. The Phospholipidosis (Phospholipidosis [4]) was “Active”, the Phospholipidosis (Phospholipidosis [8]) was “Active” and the Phospholipidosis (Phospholipidosis [5]) was “Active”.

For N=C(N)c1ccc(/C=C/c2ccc(C(=N)N)cc2)cc1 [STILBAMIDINE], the Phospholipidosis (Phospholipidosis [5]) was “Active”.

In the case of CN1CCN(Cc2nc3cccc4c3c([n+]2[O-])-c2ccccc2-4)CC1, the Phospholipidosis (Phospholipidosis [1]) is reported as “Active”.

NCC[C@H](O)C(=O)N[C@@H]1C[C@H](N)[C@@H](O[C@H]2O[C@H](CN)[C@@H](O)[C@H](O)[C@H]2O)[C@H](O)[C@H]1O[C@H]1O[C@H](CO)[C@@H](O)[C@H](N)[C@H]1O [AMIKACIN] was tested, and the Phospholipidosis (Phospholipidosis [1]) was “Active”.

For Clc1ccc(C(c2ccccc2)N2CCNCC2)cc1 (configuration not stated) [NORCHLORCYCLIZINE], the Phospholipidosis (Phospholipidosis [1]) was “Active”.

With CC/C(=C(\c1ccccc1)c1ccc(OCCN(C)C)cc1)c1ccccc1 [TAMOXIFEN] the Phospholipidosis (Phospholipidosis [1]) was “Active”.

For CC[C@H]1OC(=O)[C@H](C)[C@@H](O[C@H]2C[C@@](C)(OC)[C@@H](O)[C@H](C)O2)[C@H](C)[C@@H](O[C@@H]2O[C@H](C)C[C@H](N(C)C)[C@H]2O)[C@](C)(O)C[C@@H](C)C(=O)[C@H](C)[C@@H](O)[C@]1(C)O [ERYTHROMYCIN], the Phospholipidosis (Phospholipidosis [1]) was “Active” and the Phospholipidosis (Phospholipidosis [2]) was “Active”.

In the case of CN1CCN(C2=Nc3cc(Cl)ccc3N(C)n3cccc32)CC1, the Phospholipidosis (Phospholipidosis [1]) is reported as “Active”.

With CN1CCN(C2=Nc3cc(Cl)ccc3Nc3ccccc32)CC1 [CLOZAPINE] the Phospholipidosis (Phospholipidosis [1]) was “Active”.

CN1CCN(C(c2ccccc2)c2ccccc2)CC1 [CYCLIZINE] was tested, and the Phospholipidosis (Phospholipidosis [1]) was “Active”.

For CC(C)N(CCC(CCN1CCCCC1)(C(N)=O)c1ccccc1Cl)C(C)C (configuration not stated) [DISOBUTAMIDE], the Phospholipidosis (Phospholipidosis [1]) was “Active”, the Phospholipidosis (Phospholipidosis [2]) was “Active” and the Phospholipidosis (Phospholipidosis [9]) was “Active”.

With CN(C)CCCC1c2ccccc2Nc2ccc(Cl)cc21 (configuration not stated) [CLOMACRAN] the Phospholipidosis (Phospholipidosis [1]) was “Active”.

With CN1CCCN(C(c2ccccc2)c2ccc(Cl)cc2)CC1 (configuration not stated) [HOMOCHLORCYCLIZINE] the Phospholipidosis (Phospholipidosis [1]) was “Active”.

In the case of CCN(CC)CCCC(C)Nc1c2ccc(Cl)cc2nc2ccc(OC)cc12 (configuration not stated) [QUINACRINE], the Phospholipidosis (Phospholipidosis [1]) is reported as “Active”.

With Cc1ccc(C(=O)Nc2ccc(S(=O)(=O)O)c3cc(S(=O)(=O)O)cc(S(=O)(=O)O)c23)cc1NC(=O)c1cccc(NC(=O)Nc2cccc(C(=O)Nc3cc(C(=O)Nc4ccc(S(=O)(=O)O)c5cc(S(=O)(=O)O)cc(S(=O)(=O)O)c45)ccc3C)c2)c1 [SURAMIN] the Phospholipidosis (Phospholipidosis [1]) was “Active”.

With CC(C)(N)Cc1ccc(Cl)cc1 [CHLORPHENTERMINE] the Phospholipidosis (Phospholipidosis [3]) was “Active”, the Phospholipidosis (Phospholipidosis [1]) was “Active” and the Phospholipidosis (Phospholipidosis [2]) was “Active”. The Phospholipidosis (Phospholipidosis [8]) was “Active”.

For Clc1ccccc1CNC[C@H]1CC[C@H](CNCc2ccccc2Cl)CC1, the Phospholipidosis (Phospholipidosis [3]) was “Active”, the Phospholipidosis (Phospholipidosis [1]) was “Active” and the Phospholipidosis (Phospholipidosis [8]) was “Active”.

In the case of Cc1cn([C@H]2C=C[C@@H](CO)O2)c(=O)[nH]c1=O [STAVUDINE], the Phospholipidosis (Phospholipidosis [10]) is reported as “Not Active”.

For C1CCC(C(CC2CCCCN2)C2CCCCC2)CC1 (configuration not stated) [PERHEXILINE], the Phospholipidosis (Phospholipidosis [3]) was “Active”, the Phospholipidosis (Phospholipidosis [1]) was “Active” and the Phospholipidosis (Phospholipidosis [5]) was “Active”.

From ChEMBL document CHEMBL1615345, “Evaluation of a published in silico model and construction of a novel Bayesian model for predicting phospholipidosis inducing potential” (J Chem Inf Model, 2007)
